Laboratory results taken from patent US20250082592A1, “PHARMACEUTICAL COMPOSITION FOR PREVENTION, ALLEVIATION OR TREATMENT OF SARCOPENIA, CONTAINING ROR-alpha ACTIVATOR JC1-40” (SEOUL NATIONAL UNIVERSITY R & DB FOUNDATION, priority 2021, published 2025).

Assays:
C2C12 cells [1] = experiment: Mitochondrial membrane potential, TMRM staining of C2C12 myotubes; format: cell-based; details: JC1-40 20 μM, 48 hours in differentiation medium, vs solvent control
Description: C2C12 cells (2×10^5 cells/well) were seeded in a 12-well culture plate and cultivated in DMEM (Dulbecco's modified Eagle's medium) medium containing 10% FBS (fetal bovine serum). The C2C12 cells were maintained at 37° C. in a humidified incubator with 5% CO2 and 95% air. After 48 hours of cultivation, the medium was changed to DMEM (Dulbecco's modified Eagle's medium) differentiation medium containing 2% horse serum, and the cells were treated with JC1-40 (20 μM) and solvent (control group). 48 hours after changing the differentiation medium, the mitochondria of the C2C12 cells were stained with Tetramethylrhodamine, Methyl Ester, and Perchlorate (TMRM) 600 nM. After 20 minutes, the medium was replaced with new medium containing TMRM 150 nM, and red fluorescence was observed after 10 minutes.

HeLa cells = experiment: Mitochondrial quantity, MitoTracker Green staining of HeLa cells; format: cell-based; details: JC1-40 5 μM and 50 μM, 24 hours, vs solvent control
Description: HeLa cells (4×10^4 cells/well) were seeded in a 12-well culture plate and cultivated overnight in DMEM (Dulbecco's modified Eagle's medium) medium containing 10% FBS (fetal bovine serum). The HeLa cells were maintained at 37° C. in a humidified incubator with 5% CO2 and 95% air. After 24 hours of cultivation, the medium was replaced and JC1-40 (5 μM, 50 μM), and solvent (control group) were treated for 24 hours.

C2C12 cells [2] = experiment: mRNA expression of mitochondrial constituent genes (SDHA, COX5A, MCAD), real-time PCR; format: cell-based; details: JC1-40 20 μM, 48 hours
Description: C2C12 cells (8×10^5 cells/dish) were seeded in a 60 mm dish and cultured in DMEM (Dulbecco's modified Eagle's medium) medium containing 10% FBS (fetal bovine serum). C2C12 cells were maintained at 37° C. in a humidified incubator with 5% CO2 and 95% air. After 48 hours of cultivation, the medium was changed to DMEM differentiation medium containing 2% horse serum, and the cells were treated with JC1-40 (20 μM) and solvent (control group). After 48 hours from the replacement of the differentiation medium, RNA was extracted. For extraction, the cells were dissolved with EASY BLUE (Intron, Korea), and isopropanol fractionation and ethanol precipitation were utilized. cDNA was synthesized from each RNA sample, and oligomers amplifying the cDNA of specific genes were utilized, monitoring the expression of R-actin as a control group. More specifically, an mRNA-M-MLV mixture was prepared using M-MLV reverse transcriptase (Invitrogen), and reverse transcription polymerase chain reaction was conducted using a thermal cycler. Subsequently, real-time polymerase chain reaction was performed using the ABI StepOnePlus Real-Time PCR system (Applied Biosystems).

C2C12 cells [3] = experiment: mRNA expression of mitochondrial biosynthesis regulators (PGC-1α, NRF-1, NRF-2α, TFAM), real-time PCR; format: cell-based; details: JC1-40 20 μM, 48 hours
Description: C2C12 cells (8×10^5 cells/dish) were seeded in a 60 mm dish and cultured in DMEM (Dulbecco's modified Eagle's medium) containing 10% FBS (fetal bovine serum). The C2C12 cells were maintained at 37° C. in a humidified incubator with 5% CO2 and 95% air. After 48 hours of cultivation, the medium was changed to DMEM differentiation medium containing 2% horse serum, and treated with JC1-40 (20 μM) and solvent (control group). 48 hours after changing to the differentiation medium, RNA was extracted. The RNA extraction method is as described in Example 3. The results of the mRNA expression of mitochondrial biosynthesis regulators PGC-1α(Peroxisome proliferator-activated receptor gamma coactivator 1-alpha), NRF-1 (Nuclear Respiratory Factor 1), NRF-2a (Nuclear Respiratory Factor 2 alpha), and TFAM (Mitochondrial transcription factor A) induced by JC1-40 are shown in FIG. 4A.

C2C12 cells [4] = experiment: Protein expression of NRF1 and TFAM, Western blotting; format: cell-based; details: JC1-40 20 μM
Description: Using a method identical to the above, after treating C2C12 cells with the compound JC1-40, the expression of the mitochondrial biosynthesis regulators, NRF1 and TFAM proteins, was analyzed by Western blotting. Specific antibodies for NRF1 (Santa Cruz Biotechnology), TFAM (Santa Cruz Biotechnology), and α-tubulin (Millipore) were also used.

TFAM promoter = TFAM promoter transcriptional activity, human TFAM-Luc reporter luciferase assay in C2C12 cells; format: cell-based; details: JC1-40 20 μM, 24 hours
Description: C2C12 cells (1×10^5 cells/well) were seeded in a 12-well culture plate and cultured overnight in DMEM containing 10% FBS. The C2C12 cells were maintained at 37° C. in a humidified incubator with 5% CO2 and 95% air. After 24 hours of cultivation, human TFAM-Luc reporter (100 ng) was transfected into C2C12 cells using PolyFect (QIAGEN). After 24 hours post-transfection, the medium was changed to DMEM differentiation medium containing 2% horse serum, and treated with JC1-40 (20 μM) and solvent (control group). 24 hours later, cell lysates were obtained and luciferase activity was analyzed and determined using an analytical luminescence luminometer.

RORα = biological target: T1, RORα (Mus musculus, UniProt P51448); experiment: RORα dependency of TFAM expression, si-RORα transfection in C2C12 cells; format: cell-based; details: JC1-40 20 μM, 48 hours
T1 construct: endogenous in cells; host or cells: C2C12 cells
T1 sequence (P51448 1-523): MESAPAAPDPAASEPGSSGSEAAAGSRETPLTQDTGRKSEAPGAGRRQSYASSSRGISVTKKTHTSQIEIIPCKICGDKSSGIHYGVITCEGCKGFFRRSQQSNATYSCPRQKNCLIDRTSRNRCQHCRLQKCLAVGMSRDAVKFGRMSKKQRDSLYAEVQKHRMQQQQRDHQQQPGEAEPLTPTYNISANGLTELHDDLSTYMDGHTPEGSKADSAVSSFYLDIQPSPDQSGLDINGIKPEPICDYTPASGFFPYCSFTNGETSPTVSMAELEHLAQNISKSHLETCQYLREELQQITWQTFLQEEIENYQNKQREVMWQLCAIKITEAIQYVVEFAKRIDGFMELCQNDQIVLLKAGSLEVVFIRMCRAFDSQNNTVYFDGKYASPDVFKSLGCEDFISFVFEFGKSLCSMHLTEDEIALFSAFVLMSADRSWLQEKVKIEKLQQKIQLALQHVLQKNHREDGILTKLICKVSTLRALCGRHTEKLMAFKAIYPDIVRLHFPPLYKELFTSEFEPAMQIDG
Description: C2C12 cells (8×10^5 cells/dish) were seeded in a 60 mm dish and cultured overnight in DMEM (Dulbecco's modified Eagle's medium) containing 10% FBS (fetal bovine serum). The C2C12 cells were maintained at 37° C. in a humidified incubator with 5% CO2 and 95% air. After 24 hours of cultivation, si-RORα (250 pmoles) and si-GL3 (control group) were transfected into C2C12 cells using Lipofectamine 2000 (Thermo Fisher Scientific). After 24 hours post-transfection, the medium was switched to DMEM differentiation medium containing 2% horse serum, and treated with JC1-40 (20 μM) for 48 hours. The methods for RNA and protein extraction were as previously mentioned.

[5] = tested on: male C57BL/6 mice, high-fat diet; experiment: High-fat diet-induced animal model, gastrocnemius tissue immunofluorescence; format: in vivo; details: JC1-40 5 mg/kg orally once a day for 5 weeks
Description: To confirm the correlation between the administration of JC1-40, an increase in mitochondrial biosynthesis, and the suppression of sarcopenia, experiments were conducted using a diet-induced animal model. Specifically, male C57BL/6 mice aged 5 weeks were acclimatized in a temperature and humidity-controlled environment for one week and were provided with a high-fat diet (fats derived from lard and soybean oil, 60 kcal % included, Research diets) for 12 weeks. From the 8th week of the diet, JC1-40 was orally administered once a day for 5 weeks at a concentration of 5 mg/kg (FIG. 6A). In detail, an amount of JC1-40 corresponding to the final concentration was measured and added to sterile water containing 0.5% carboxymethyl cellulose, and then uniformly suspended using a mortar and pestle to produce the drug. The dose for each mouse subject was taken and orally administered using a Sonde. The control group was administered sterile water containing 0.5% carboxymethyl cellulose in the same manner. After 12 weeks of diet were completed, the mice were anesthetized, the gastrocnemius tissue was extracted, and it was fixed using a 4% paraformaldehyde solution. The fixed tissue underwent washing, decalcification, and dehydration, and was ultimately made into a paraffin block using paraffin. The created paraffin block was cut into sections with a thickness of 3 μm, and after creating sections, protein expression was confirmed with fluorescence using specific antibodies for COX4 (Cytochrome c oxidase subunit 4, Santa Cruz Biotechnology) and TFAM (Mitochondrial transcription factor A, Santa Cruz Biotechnology).

- increase in TFAM expression with si-RORα (RORα; C2C12 cells transfected with si-RORα (250 pmoles)): did not occur
- protein expression of TFAM (RORα; C2C12 cells, si-GL3 control): increased
SMILES: CNC(=S)NCc1ccc(OCc2ccccc2)cc1 [JC1-40, 1-methyl-3-[(4-phenylmethoxyphenyl)methyl]thiourea]
- red fluorescence (TMRM), mitochondrial membrane potential (C2C12 cells [1]): increased
- green fluorescence (MitoTracker Green), quantity of mitochondria (HeLa cells): increased in a concentration-dependent manner
- mRNA expression of COX5A (C2C12 cells [2]): increased
- mRNA expression of MCAD (C2C12 cells [2]): increased
- mRNA expression of SDHA (C2C12 cells [2]): increased
- mRNA expression of NRF-1 (C2C12 cells [3]): increased
- mRNA expression of NRF-2 (C2C12 cells [3]): increased
- mRNA expression of PGC-1α (C2C12 cells [3]): increased
- mRNA expression of TFAM (C2C12 cells [3]): increased
- protein expression of NRF-1 (C2C12 cells [4]): increased
- protein expression of TFAM (C2C12 cells [4]): increased
- transcriptional activity of the TFAM promoter (luciferase activity) (TFAM promoter): confirmed to be due to the transcriptional activity of the TFAM promoter
- protein expression of COX4 in gastrocnemius tissue [5]: significantly increased
- protein expression of TFAM in gastrocnemius tissue [5]: significantly increased
- sarcopenia induced by the high-fat diet [5]: significantly improved
